# Earlier results, collected in article PMC10608500 (Marine Drugs, 2023).
# Like-named read-outs stand apart in the source and are kept apart here.
# Assays:
# [1] = Table 1
# [2] = tested on: U937 human histiocytic lymphoma cells; set-up: method as in PMID 34986303; conditions: read-out: IC50 against U937 cells
# [3] = tested on: CCRF-CEM human T lymphoblast cells; set-up: method as in PMID 34986303; conditions: read-out: IC50 against CCRF-CEM cells
# [4] = from Oscillatoria sp., ref Li, T et al. 20
# [5] = from Oscillatoria agardhii, ref Murakami, M et al. 21
Substance,"Activities [1, 4]",IC50 [2] [µM],IC50 [3] [µM],"Activities [1, 5]",other results
amantamide A,"CXCR7 agonist, cytotoxic",6.1,8.3,–,–
amantamide B,"CXCR7 agonist, cytotoxic",7.3,5.6,–,–
heptavalinamide A,–,–,–,–,"Activities ([1]; from Symploca sp., ref Suo, R et. al. 19): cytotoxic"
prenylagaramide A,–,–,–,no biological activity,–
prenylagaramide B,–,–,–,no biological activity,–
sepiatocin,–,–,–,–,"Activities ([1]; from Sepia officinalis, ref Henry, J et al. 22): muscle contractile activity modulator (sepiatocin)"
